Measurements: patent US8486975B2, “Non-nucleoside reverse transcriptase inhibitors” (Merck Canada Inc., priority 2010, dated 2013)

Experiments:
[1] = system: wild-type HIV-1; experiment: Spread assay: inhibition of acute HIV-1 infection of T-lymphoid cells (wild-type); type: cell-based
Procedure: Assays for the inhibition of acute HIV-1 infection of T-lymphoid cells (alternatively referred to herein as the “spread assay”) were conducted in accordance with Vacca, J. P. et al., Proc. Natl. Acad. Sci. USA 1994, 91: 4096. […] The compounds were also tested using a variant of the assay using HIV strains containing the K103N and Y181C mutants, and found to be less than 20-fold shifted relative to wild-type in all cases.

[2] = target: HIV-1 RT enzyme (WT) (Human immunodeficiency virus type 1 group M subtype B, UniProt P04585); experiment: ECL assay for inhibition of HIV reverse transcriptase; type: biochemical; settings: 100 nM compound; wild-type RT
Procedure: An assay to determine the in vitro inhibition of HIV reverse transcriptase by compounds of the present invention was conducted as follows: HIV-1 RT enzyme (0.1 nM) was combined with inhibitor or DMSO (10%) in assay buffer (50 mM Tris-HCl, pH 7.8, 1 mM dithiothreitol, 6 mM MgCl2, 80 mM KCl, 0.025% CHAPS, 0.1 mM EGTA), and the mixture preincubated for 30 minutes at room temperature in microtiter plates (Corning Costar #3365). 50 μL reaction mixtures were initiated with a combination of primer-template substrate (5 nM final concentration) and dNTPs (0.6 μM dNTPs, 20 nM Ruthenium-dUTP). The heterodimeric nucleic acid substrate was generated by annealing the DNA primer biotinylated-pD500 (obtained from Integrated DNA Technologies) to t500, a 500 nucleotide RNA template created by in vitro transcription (see Shaw-Reid et al., J. Biol. Chem., 278: 2777-2780). After a 90 minute incubation at 37° C., reactions were quenched by 60 μL of quenching buffer containing 0.05 M EDTA, 0.7% BSA, 0.07% Tween-20 and 0.017% sodium azide in PBS. […] The plate is then left at room temperature for 1 hour, after which it is washed 3 times with 200 μL per well of PBS. 150 μL of 1× read buffer T (MSD) is added and the plate read on the Sector Imager 6000 (MSD).

| Structure (SMILES) | Spread (WT) CIC95 (nM) (10% FBS) [1] | inhibition at 0.1 µM [2] [%] | Spread (WT) CIC95 (nM) (50% NHS) [1] |
| --- | --- | --- | --- |
| Cn1c(Cn2cc(Br)c(Cl)c(Oc3cc(Cl)cc(C#N)c3)c2=O)n[nH]c1=O [Example 6-1, 3-({5-Bromo-4-chloro-1-[(4-methyl-5-oxo-4,5-dihydro-lH-l,2,4-triazol-3-yl)methyl]-2-oxo-1,2-dihydropyridin-3-yl}oxy)-5-chlorobenzonitrile] | 5.1 | 90 |  |
| Cn1c(Cn2ccc(Br)c(Oc3cc(Cl)cc(C#N)c3)c2=O)n[nH]c1=O [Example 4-1, 3-({4-Bromo-1-[(4-methyl-5-oxo-4,5-dihydro-1H-1,2,4-triazol-3-yl)methyl]-2-oxo-1,2-dihydropyridin-3-yl}oxy)-5-chlorobenzonitrile] |  | 90 | 12 |
| Cn1c(Cn2ccc(Cl)c(Oc3cc(Cl)cc(C#N)c3)c2=O)n[nH]c1=O [Example 3-1, 3-Chloro-5-({4-chloro-1-[(4-methyl-5-oxo-4,5-dihydro-1H-1,2,4-triazol-3-yl)methyl]-2-oxo-1,2-dihydropyridin-3-yl}oxy)benzonitrile] |  | 75 | 15 |
| CCn1c(Cn2ccc(C(F)(F)F)c(Oc3cc(Cl)cc(C#N)c3)c2=O)n[nH]c1=O [Example 2-1, 3-Chloro-5-({1-[(4-ethyl-5-oxo-4,5-dihydro-1H-1,2,4-triazol-3-yl)methyl]-2-oxo-4-(trifluoromethyl)-1,2-dihydropyridin-3-yl}oxy)benzonitrile] |  | 75 | 26 |
| Cn1c(Cn2ccc(C(C)(F)F)c(Oc3cc(Cl)cc(C#N)c3)c2=O)n[nH]c1=O [Example 5-1, 3-Chloro-5-({4-(1,1-difluoroethyl)-1-[(4-methyl-5-oxo-4,5-dihydro-1H-1,2,4-triazol-3-yl)methyl]-2-oxo-1,2-dihydropyridin-3-yl}oxy)benzonitrile] |  | 75 | 10 |
| Cn1c(Cn2ccc(C(F)(F)F)c(Oc3cc(Cl)cc(C#N)c3)c2=O)n[nH]c1=O [Example 1-1, 3-Chloro-5-({1-[(4-methyl-5-oxo-4,5-dihydro-1H-1,2,4-triazol-3-yl)methyl]-2-oxo-4-(trifluoromethyl)-1,2-dihydropyridin-3-yl}oxy)benzonitrile] |  | 85 | 19 |
| Cn1c(Cn2ccc(C(F)(F)F)c(Oc3cc(C#N)cc(C(F)F)c3)c2=O)n[nH]c1=O [Example 8-1, 3-(Difluoromethyl)-5-({1-[(4-methyl-5-oxo-4,5-dihydro-1H-1,2,4-triazol-3-yl)methyl]-2-oxo-4-(trifluoromethyl)-1,2-dihydropyridin-3-yl}oxy)benzonitrile] | 7.3 | 75 |  |
| Cn1c(Cn2cc(Br)c(C(F)(F)F)c(Oc3cc(Cl)cc(C#N)c3)c2=O)n[nH]c1=O [Example 7-1, 3-({5-Bromo-1-[(4-methyl-5-oxo-4,5-dihydro-1H-1,2,4-triazol-3-yl)methyl]-2-oxo-4-(trifluoromethyl)-1,2-dihydropyridin-3-yl}oxy)-5-chlorobenzonitrile] |  | 77 | 23 |
